# Results as given in US6579853B2, “Brain cell or nerve cell-protective agents comprising ginsenoside Rb1” (Japan Science and Technology Corporation, priority 1998, dated 2003).
# How the values were obtained:
# [1] = system: SH-SP rats with MCA permanent occlusion; experiment: Water maze test (place navigation ability) after MCA permanent occlusion, intravenous infusion; assay type: in vivo, rat
# Procedure: (§1) First, we examined the actions of intravenous infusion of ginsenoside Rb1. For this purpose, for example, male SH-SP rats weighing 250˜300 g at the age of 12-13 weeks were used. The animals were bred in an air-conditioned room with a 12:12 hour light-dark cycle, and water and feeds were supplied ad libitum. The cortical branch of the left middle cerebral artery (MCA) was coagulated and cut. A single intravenous administration of ginsenoside Rb1 dissolved in physiological saline was conducted immediately after MCA permanent occlusion (6 μg or 60 μg), thereafter continuous intravenous administration of ginsenoside Rb1 was performed for 28 days by using an Alza mini osmotic pump (6 μg/day or 60 μg/day).
# After MCA permanent occlusion, according to the conventional method (Zhang B. et al., J. Stroke Cerebrovasc. Dis., 7, 1-9, 1998), water maze tests were performed for 4 days at the 2nd week and the 4th week, respectively, and the place navigation abilities of SH-SP rats were determined.
# (§2) Male SH-SP rats at the age of 12-13 weeks, weighing 250-300 g, were used. The animals were bred in a room furnished with 12 hours light and dark cycles and water and feeds were supplied ad libitum. Blood pressure of the animals was 203±6.9 mmHg. The following experiments were conducted in accordance with the Guide for Animal Experimentation at Ehime University School of Medicine. The cortical branch of the left middle cerebral artery (MCA) of SH-SP rats, were coagulated and cut, while their rectal temperature was maintained at 37±0.2° C. under inhalation anesthesia.
# Immediately after MCA permanent occlusion, 60 μl of physiological saline containing ginsenoside Rb1 at a concentration of 1 μg/μl or 0.1 μg/μl was injected once into the left femoral vein. […]
# After the MCA permanent occlusion according to the conventional method (Zhang B. et al., J. Stroke Cerebrovase. Dis., 7, 1-9, 1998), water maze tests were performed for 4 days at the 2nd week and the 4th week, respectively, and place navigation abilities of SH-SP rats were determined. […]
# [2] = system: SH-SP rats with MCA permanent occlusion; experiment: Ratio of cerebrocortical infarction after MCA permanent occlusion, intravenous infusion; assay type: in vivo, rat
# Procedure: as §1
# After the water maze tests at the 4th week, the SH-SP rats were anesthetized with chloral hydrate, and they were perfused and fixed transcardially with 0.1 mole phosphate buffer containing 4% paraformaldehyde. The brains were dissected out and cerebrocortical infarcted areas were photographed. Areas of the left cerebral hemisphere and the left cerebrocortical infarct lesions were measured on the photographs by using an image analysis device. The left cerebrocortical infarcted areas were divided by the left cerebral hemispheric areas to calculate ratios of the cerebrocortical infarction (%).
# as §2, with “The cortical branch of the left middle cerebral artery (MCA) of SH-SP rats, were coagulated and cut, while their rectal temperature was maintained at 37±0.2° C. under inhalation anesthesia.” left out
# After termination of the water maze tests at the 4th week, the SH-SP rats were anesthetized with chloral hydrate, and they were perfused and fixed transcardially with 0.1 mole phosphate buffer containing 4% paraformaldehyde. […] Areas of the left cerebral hemisphere and the left cerebrocortical infarct lesions were measured on the photographs by using an image analysis device. […]
# [3] = system: cerebrocortical neurons from rats at embryonic age 17; experiment: Peroxidation of neuronal membrane lipids by ferrous sulfate and ascorbic acid (TBA); assay type: cell-based, rat; conditions: 48 hours pretreatment
# Procedure: Then the medium was changed to a fresh medium containing ferrous sulfate and ascorbic acid but not containing ginsenoside Rb1 and the neuronal culture was maintained for 2 hours to generate hydroxyl radicals for giving an oxidative injury to neuronal membrane. The generated neuronal membrane lipid peroxide was determined by photometrically measuring a fixed amount of thiobarbituric acid (TBA) after solubilizing the cells with sodium dodecyl sulfate.
# Then the medium was changed to a fresh medium containing ferrous sulfate and ascorbic acid but no ginsenoside Rb1, and the neuronal culture was maintained for 2 hours to generate hydroxyl radicals for giving oxidative injury to neuronal membrane. The generated neuronal membrane lipid peroxide was photometrically determined by measuring the fixed amount of thiobarbituric acid (TBA) after solubilizing the cells with sodium dodecyl sulfate.
# Bcl-xL mRNA = Bcl-xL mRNA expression in cultured nerve cells (RT-PCR); assay type: cell-based, rat; conditions: 1 fg/ml or 100 fg/ml, 24 hours; compared with control (0 fg/ml)
# Procedure: It was investigated whether ginsenoside Rb1 of the present invention can increase the expression of Bcl-xL gene or not. Experimental techniques followed those by Wen et al. (Wen T. -C., et al., J. Exp. Med., 188, 635-649, 1998). Total RNA was extracted from cultured nerve cells treated for 24 hours with ginsenoside Rb1 at the concentrations of 0 fg/ml, 1 fg/ml and 100 fg/ml. cDNA was prepared from DNase-treated total RNA (3 μg) by using oligo dT primer and reverse transcriptase (Moloney murine leukemia virus reverse transcriptase). Gene amplification reaction (polymerase chain reaction, PCR) was performed by using Taq polymerase under the following conditions: (1) 94° C., 2 minutes; (2) 94° C., 1.5 minute; 55° C., 1.5 minute; 72° C., 2 minutes constructed one cycle, and 25 cycles for Bcl-xL and 20 cycles for β-actin were performed; and (3) 72° C., 2 minutes.
# PCR products were electrophoresed on 3% agarose gel and visualized by ethidium bromide staining. The expression of β-actin mRNA was used as an internal standard. […]
# [4] = system: gerbils loaded with 3 minute forebrain ischemia; experiment: TUNEL staining of hippocampal CA1 field after 3 minute forebrain ischemia, intracerebroventricular administration; assay type: in vivo, gerbil; conditions: i.c.v. 2.5 or 25 ng single, then 60 or 600 ng/day for 1 week; 1 week after ischemia
# Procedure: In order to analyze a suppressive effect of ginsenoside Rb1 on intracerebral apoptosis-like neuron death, the present inventors examined whether actually occurring pathological apoptosis-like neuron death in the mature brain can be reduced by administration of ginsenoside Rb1 or not. The three minute forebrain ischemia model of gerbils was used as model animal. It was reported that at one week after 3 minute ischemia, about one half of hippocampal CA1 pyramidal neurons degenerated (Sakanaka M., et al., Proc. Natl. Acad. Sci. USA, 95, 4635-4640, 1998). […] With this model animal, it was examined with TUNEL staining whether apoptosis-like neuron death on the 7th day after 3 minute ischemia could be suppressed by intracerebroventricular administration of ginsenoside Rb1 or not.
# Immediately after 3 minute forebrain ischemia in gerbils under inhalation anesthesia, a single intracerebroventricular administration of ginsenoside Rb1 at the dose of 2.5 ng or 25 ng was performed, and subsequently ginsenoside Rb1 (60 ng/day or 600 ng/day) was continuously infused into the cerebral ventricles through an osmotic minipump for 1 week. At one week after 3 minute forebrain ischemia, the gerbils were perfused and fixed transcardially with phosphate buffer containing 4% paraformaldehyde under pentobarbital anesthesia and the brain was dissected out. […]
# [5] = system: cerebrocortical nerve cells (neurons) from rats at embryonic age 17
# Procedure: After maintaining cerebrocortical nerve cells (neurons) from rats at embryonic age 17 in a serum-free culture medium for 4 or 5 days, the medium was replaced with a fresh medium containing or not containing ginsenoside Rb1 and the neurons were incubated for 24 hours. Then, SNP at the concentration of 100 μM was added to the medium for 10 minutes, and the nerve cells (neurons) were maintained in a medium containing ginsenoside Rb1 for 16 hours. Survival rate of the nerve cells was measured by using a redox indicator, alamar blue.
# In the present experiments, ginsenoside Rb1 was added before and after SNP loading or only after SNP loading, and its effects were measured.
# After maintaining cerebrocortical nerve cells (neurons) from rats at embryonic age 17 in a serum-free culture medium for 4 or 5 days, the medium was replaced with a fresh medium containing ginsenoside Rb1 at the concentrations of 1 fg/ml, 100 fg/ml and 100 pg/ml or no ginsenoside Rb1 (0 fg/ml), and the neurons were incubated for 24 hours. Thereafter a nitric oxide (NO) donor, sodium nitroprusside (SNP) at a concentration of 100 μM, was added to the medium for 10 minutes. Then the nerve cells (neurons) were maintained in a medium containing ginsenoside Rb1 for 16 hours. Survival rate of the nerve cells was measured by using a redox indicator, alamar blue.
# Data are represented as a mean±SE. […]
# [6] = in vivo
# [7] = system: transient forebrain ischemia model of gerbils; conditions: cited from earlier work
# [8] = system: gerbils with occlusion of the common carotid arteries; conditions: i.c.v. infusion starting immediately after 3 or 3.5 minute occlusion; cited from earlier work
# [9] = system: SH-SP rats with permanent occlusion of the MCA; conditions: cited from earlier work
# cultured nerve cells = conditions: cited from earlier work
# neuronal cells = conditions: 0.11-11 μg/ml; cited from earlier work
# nerve cells [10] = conditions: approximately 500 μM (550 μg/ml); cited from earlier work
# brain = conditions: intraperitoneal administration; cited from earlier work
# nerve cells [11] = conditions: cited from earlier work
# [12] = intracerebroventricular administration; cited from earlier work
# [13] = in vivo; cited from earlier work
# [14] = i.c.v. infusion starting immediately after permanent MCA occlusion
compound,measurement,setting,value
CC(C)=CCC[C@](C)(O[C@@H]1O[C@H](CO[C@@H]2O[C@H](CO)[C@@H](O)[C@H](O)[C@H]2O)[C@@H](O)[C@H](O)[C@H]1O)[C@H]1CC[C@]2(C)[C@@H]1[C@H](O)C[C@@H]1[C@@]3(C)CC[C@H](O[C@@H]4O[C@H](CO)[C@@H](O)[C@H](O)[C@H]4O[C@@H]4O[C@H](CO)[C@@H](O)[C@H](O)[C@H]4O)C(C)(C)[C@@H]3CC[C@]12C [ginsenoside Rb1],"learning disability in water maze tests, low dose","[1]; i.v. 6 μg/day, 3rd and 4th day at the 2nd and 4th week after MCA occlusion",significantly ameliorated
same,"learning disability in water maze tests, high dose","[1]; i.v. 60 μg/day, 4th day at the 2nd week, 3rd and 4th days at the 4th week after MCA occlusion",significantly ameliorated
same,place navigation disability after MCA permanent occlusion (water maze),"[1]; intravenous infusion 6 or 60 μg/day for 28 days, compared with cerebral infarction group given physiological saline",significantly improved
same,ratio of cerebrocortical infarction,"[2]; i.v. 6 or 60 μg/day for 28 days, compared with physiological saline group",significantly reduced
same,actual volume of infarction reduced to (fraction of control),"[2]; i.v. administration, worked out from area ratio",about ¼
same,mean ratio of cerebrocortical infarction compared with physiological saline group,"[2]; i.v. ginsenoside Rb1 groups, reduced to",≤ 50%
same,preventive effect on lipid peroxidation,[3]; 0.1-10 fg/ml,no preventive effects
same,preventive effect on peroxidation of nerve cell membrane lipid,[3]; 100 fg/ml,slightly confirmed
same,expression of Bcl-xL mRNA,Bcl-xL mRNA,increased
same,TUNEL-positive nerve cells in hippocampal CA1 field,[4],significantly reduced in a dose-dependent manner
same,apoptosis of nerve cells after SNP treatment,"[5]; 1-100 fg/ml, added before and after SNP (100 μM, 10 minutes) or only after SNP",significantly suppressed
same,concentrations in extracellular fluid that suppress apoptosis of nerve cells,[5]; SNP-treated cultured neurons,1 to 100 fg/mL
same,adverse effect on administered animals,[6],No adverse effect
same,delayed neuronal death and learning disability caused by 5 minute occlusion,[7]; i.p. 10 or 20 mg/kg once a day for one week in advance,significantly prevent
same,hippocampal CA1 pyramidal neurons rescued,[7]; i.p. 10 or 20 mg/kg/day before ischemic loading,about 30%
same,effect of intraperitoneal administration after ischemia,[7]; i.p. immediately after 3- or 5-minute occlusion of the common carotid arteries,no effect
same,delayed neuronal death and learning disability,[8],suppresses
same,suppressive effect on cerebral infarction,[9]; continuous i.c.v. infusion 0.6 μg/day after MCA occlusion,significant suppressive effect
same,curative effect on cerebral infarction,[9]; continuous i.c.v. infusion 6 μg/day or 0.06 μg/day after MCA occlusion,no curative effect
same,infarcted area in the cerebral cortex,[9]; [14],significant reduction
same,ischemia-induced place navigation disability,[9]; [14],ameliorated
same,neurotoxicity of free radicals,cultured nerve cells; 0.1-100 fg/ml,reduce the neurotoxicity
same,neuronal necrosis caused by ferrous sulfate,cultured nerve cells; 1-100 fg/ml previously admixed in culture medium,reduces neuronal necrosis
same,glutamate-mediated neurotoxicity,neuronal cells,reduce glutamate-mediated neurotoxicity
same,apoptosis-like nerve cell death,nerve cells [10],has a possibility to prevent
same,action on the brain,brain,tranquilizing action
same,neurotoxicity at high concentrations,nerve cells [11],increased neurotoxicity
same,"brain temperature, cerebral blood flow and blood pressure",[12],no effects
same,detection in blood after oral administration,[13],can not be detected
